# From the NIST ThermoML archive (doi:10.1021/je3007138)
# ± gives the expanded uncertainty stated by the source.
# Conditions: 351.2 K; Liquid; Ebulliometric method (Recirculating still)
structure (smiles),measurement,value
CCO [ethanol],vapor or sublimation pressure,101.3 ± 3 kPa
